Experimental data as given in US7115614B2, “Method of treating brain ischemia” (Kyowa Hakko Kogyo Co., Ltd., priority 1997, dated 2006).
Values joined by “and” are separate entries in the source; they are usually repeats but may differ in a detail not shown here. Identical values can stand only once.

What was measured:
dopaminergic neurons = assay: Inhibitory action on neurodegeneration: MPTP HCl-treated mice, specific [3H]-mazindol binding in the striatum; format: in vivo, C57BL/6NCrj mice; conditions: for amount of specifically bound [3H]-mazindol in the striatum: striatum removed after 1 week, mean ± standard error
Protocol: The experiment was conducted according to the method of Sundstrom et al. (Brain. Res. Bulletin, 21, 257–263 (1988)).
In the experiment, 9- to 10-week-old male C57BL/6NCrj mice (supplied by Nippon Charles River) were used. During the period of preliminary breeding, the animals were kept in a laboratory at room temperature (22 to 24° C.) under 50 to 60% humidity and allowed food and water ad libitum.
1-Methyl-4-phenyl-1,2,3,6-tetrahydropyridine hydrochloride (abbreviated hereinafter as MPTP HCl (RBI Co., Ltd.)) was dissolved at a concentration of 4 mg/ml in physiological saline. A test compound was suspended at a concentration of 1 mg/ml in 0.3% […]. Each test group consisted of 9 to 10 animals, and a control group was intraperitoneally given physiological saline, and an MPTP HCl administration group and an MPTP HCl+test compound administration group were intraperitoneally given MPTP HCl (40 mg/kg).
After 1 hour, the control group and the MPTP HCl administration group were orally given 0.3% Tween, and the MPTP HCl+test compound administration group was orally given the test compound (10 mg/kg). After 1 week, the animals were decapitated, and the striatum was removed therefrom under cooling on ice. The striatum was stored in a deep freezer (<−80° C.) before a binding experiment.
A [^3H]-mazindol binding test was conducted in the following method. A striatum and 300 μl of buffer (120 mM NaCl, 5 mM KCl, 50 mM Tris, pH 7.9) were put into a micro-centrifuge tube and homogenized by portable homogenizer S-203 (manufactured by Ikeda Rika) and centrifuged at 15,000 rpm, 4° C. for 5 minutes (by KUBOTA 1710). The precipitates were suspended in 300 μl of buffer and then centrifuged again at 15,000 rpm, 4° C. for 5 minutes. The precipitates were suspended in 500 μl of buffer and then distributed into four test tubes in 100 μl portions. The remaining suspension (100 μl) was used for protein quantification. To determine non-specific binding, nomifensine maleate (RBI Co., Ltd.) (final concentration: 10 μM) as an inhibitor of dopamine uptake was added to two test tubes among the four test tubes. The binding reaction was initiated by adding 25 μl of [^3H]-mazindol (final concentration: 10 nM) (Spec. Act. 888 GBq/mmol, a product of NET). The mixture was incubated for 1 hour under cooling on ice, and the striatum homogenate was adsorbed onto a glass filter (Whatman, GF/B) in a cell harvester and washed three times with 5 ml of buffer. The radioactivity on the glass filter was measured with a liquid scintillation counter. For each striatum, specific [^3H]-mazindol binding was determined by subtracting the average of non-specific [^3H]-mazindol binding from the average of total [^3H]-mazindol binding.
Protein quantification was conducted by use of a Bio-Rad DC protein assay kit (Bio-Rad Co., Ltd.) with bovine serum albumin (Sigma Co., Ltd.) as a standard. Specific [^3H]-mazindol binding was expressed as the amount of bound [^3H]-mazindol per unit weight of protein, and the mean±standard error was determined for each group (10 animals).
In Table 2, the results are expressed in terms of the amount of specifically bound [^3H]-mazindol (fmol/mg protein) in the striatum.

dd-strain male mice = assay: Acute toxicity test (minimum lethal dose); format: in vivo; conditions: oral administration, mortality seven days after the administration
From the text: Test compounds were orally or intraperitoneally administered to groups of dd-strain male mice weighing 20±1 g, each group consisting of three mice.

[1] = MPTP HCl 40 mg/kg i.p., test compound 10 mg/kg orally after 1 hour

SMILES: CCn1c(=O)c2c(nc(/C=C/c3ccc(OC)c(OC)c3)n2C)n(CC)c1=O [Compound 1, (E)-1,3-diethyl-8-(3,4-dimethoxystyryl)-7-methylxanthine]
- amount of specifically bound [3H]-mazindol in the striatum (dopaminergic neurons; [1]): 950.9 ± 54.1 fmol/mg protein
- reduction of the amount of specifically bound [3H]-mazindol by administration of MPTP HCl (dopaminergic neurons; statement in words, 10 mg/kg orally, MPTP HCl mice): inhibited
- minimum lethal dose (MLD) (dd-strain male mice): greater than 1000 mg/kg

SMILES: CCCn1c(=O)c2c(nc(/C=C/c3ccc(OC)c(OC)c3)n2C)n(CCC)c1=O [Compound 2, (E)-8-(3,4-dimethoxystyryl)-1,3-dipropyl-7-methylxanthine]
- amount of specifically bound [3H]-mazindol in the striatum (dopaminergic neurons; [1]): 784.8 ± 41.6 fmol/mg protein

SMILES: CCn1c(=O)c2c(nc(/C=C/c3cc(OC)c4c(c3)OCO4)n2C)n(CC)c1=O [Compound 3, (E)-1,3-diethyl-8-(3-methoxy-4,5-methylenedioxystyryl)-7-methylxanthine]
- amount of specifically bound [3H]-mazindol in the striatum (dopaminergic neurons; [1]): 794.9 ± 28.5 fmol/mg protein

SMILES: COc1cc(/C=C/c2nc3c(c(=O)n(C)c(=O)n3C)n2C)cc(OC)c1OC [Compound 4, (E)-8-(3,4,5-trimethoxystyryl)caffeine]
- amount of specifically bound [3H]-mazindol in the striatum (dopaminergic neurons; [1]): 923.5 ± 51.1 fmol/mg protein

SMILES: CN1CC=C(c2ccccc2)CC1.Cl [MPTP HCl, 1-Methyl-4-phenyl-1,2,3,6-tetrahydropyridine hydrochloride, reference compound]
- amount of specifically bound [3H]-mazindol in the striatum (dopaminergic neurons; MPTP HCl 40 mg/kg i.p. alone (0.3% Tween orally after 1 hour), hydrochloride): 674.2 ± 38.1 fmol/mg protein and 616.3 ± 32.8 fmol/mg protein and 621.2 ± 27.7 fmol/mg protein
